This is an account of results in US20260364080A1, “PYRAZOLO-PYRIMIDINONE COMPOUNDS FOR USE IN METHODS OF INHIBITING WEE1 A KINASE” (Acrivon Therapeutics, Inc., priority 2023, published 2026).

Experiment [1] addresses T1, recombinant human Wee1A kinase (Homo sapiens, UniProt P30291).
T1 construct: full length Wee1 kinase was expressed by baculovirus in insect cells; purchased Invitrogen PV3817; host or cells: insect cells (baculovirus)
Description: Wee1A kinase binding assay (LanthaScreen Eu time-resolved FRET). Particulars: 30 nM tracer 178, 5 nM Wee1A kinase, 2 nM Eu-labeled antibody; 60 minutes at room temperature; read-out: Wee1A kinase Binding IC50. In short, it runs like this: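 Full-length, baculovirus-expressed GST-tagged Wee1A (5 nM) was mixed with 2 nM Eu-anti-GST antibody, 30 nM kinase tracer 178 and compound (1% DMSO). Buffer was 50 mM HEPES pH 7.5, 10 mM MgCl2, 1 mM EGTA, 0.01% Brij-35, incubated 60 min at room temperature. TR-FRET 665/615 nm emission ratios from duplicates were curve-fitted.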
(TR-FRET usually uses a lanthanide donor and a delayed reading to cut background.)

The target in experiment [2] is T2, Myt1 kinase (CDK1 Thr14 phosphorylation in ACHN renal cell carcinoma cells) (Homo sapiens, UniProt Q99640).
T2 construct: pCDK1 Thr14 AlphaLISA read-out
T2 sequence (Q99640 1-499): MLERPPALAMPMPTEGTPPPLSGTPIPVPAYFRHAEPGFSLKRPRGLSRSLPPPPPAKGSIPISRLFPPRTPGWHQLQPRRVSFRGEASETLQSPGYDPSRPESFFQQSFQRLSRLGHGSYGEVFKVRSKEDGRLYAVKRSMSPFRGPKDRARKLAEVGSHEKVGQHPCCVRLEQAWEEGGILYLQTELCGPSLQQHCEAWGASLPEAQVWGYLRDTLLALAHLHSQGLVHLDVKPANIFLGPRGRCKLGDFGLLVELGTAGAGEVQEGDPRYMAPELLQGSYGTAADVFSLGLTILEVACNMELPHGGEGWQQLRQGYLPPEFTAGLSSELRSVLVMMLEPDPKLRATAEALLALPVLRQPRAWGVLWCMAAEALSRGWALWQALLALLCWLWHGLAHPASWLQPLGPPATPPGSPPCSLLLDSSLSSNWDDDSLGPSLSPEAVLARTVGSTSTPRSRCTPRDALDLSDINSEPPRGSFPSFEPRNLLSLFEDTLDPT
Description: AlphaLISA assay, Myt1 kinase target engagement (phospho-CDK1 Thr14) in ACHN cells. The class given is cell-based. Particulars: ACHN cells (marked *); 4 h treatment. Here is the method:
Each of an ACHN renal cell carcinoma cell line (ATCC) and a DAOY medulloblastoma cell line, and an A427 lung cancer line were cultured in Minimum Essential Medium Eagle supplemented with 10% fetal calf serum (Sigma), 1% Penicillin-Streptomycin and 10 mM HEPES buffer (HyClone). Cell cultures were kept in a humidified incubator at 37 °C and 5% CO2. Cells were routinely tested for Mycoplasma contamination.
For target engagement assessment of Myt1 kinase inhibition, quantification of Cdk1 phosphorylated on threonine 14 was detected using the AlphaLISA® SureFire® Ultra™ Human Phospho-CDK1 (Thr14) assay (Perkin Elmer). DAOY or ACHN cells were seeded into tissue culture treated 96-well plates (VWR) to a density of 10,000 or 20,000 cells per well respectively. 24 h post seeding cells were treated for 4 h with compounds at concentrations ranging from 7 to 5000 nM. Cells were washed with PBS and lysed in 50 μl AlphaLISA lysis buffer before freezing at −80 C. Ten ul of the lysate was transferred to 384 well plates and incubated with AlphaLISA donor and acceptor beads according to the manufacturer's instructions. Dose response curves and EC50 values were calculated and visualized using GraphPad Prism version 9. Target engagement for Myt1 kinase can also be measured using the same AlphaLISA assay in OVCAR3 cells, an ovarian cancer cell line. NIH:OVCAR-3 (OVCAR3) cells are cultured in RPMI-1640 medium supplemented with 0.01 mg/ml insulin, 20% FBS, 1% Penicillin-Streptomycin and 10 mM HEPES buffer. 14,000 cells per well are seeded into 96 well tissue culture plates in full medium. Twenty-four hours post seeding, cells are treated with compound for 4 hours at concentrations ranging from 0.017 nM to 1000 nM.

Experiment [3] deals with T3, Myt1 kinase (recombinant PMYT-1) (Homo sapiens, UniProt Q99640).
T3 construct: full length PMYT-1 was expressed by baculovirus in insect cells; purchased Invitrogen A30984; host or cells: insect cells (baculovirus)
T3 sequence (Q99640 1-499): T2 sequence (Q99640 1-499)
Description: Myt1 kinase binding assay (LanthaScreen Eu Kinase Binding Assay). The conditions noted are these: 3 nM tracer 178, 2.5 nM PMYT-1, 1 nM Eu-labeled antibody; read-out: Myt1 kinase Binding IC50. In short, it runs like this: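 The binding affinity of compounds for Myt1 kinase was measured with a LanthaScreen Europium (Eu) Kinase Binding Assay, a time-resolved FRET format in which test compounds compete against a labeled kinase tracer, and the results were expressed as IC50 values describing compound binding to Myt1.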

Experiment [4] concerns the target T4, Wee1A kinase (CDK1 Tyr15 phosphorylation in ACHN renal cell carcinoma cells) (Homo sapiens, UniProt P30291).
T4 construct: pCDK1 Tyr15 immunofluorescence read-out
Description: High-content imaging of pCdk1 Y15, Wee1A kinase target engagement in ACHN cells. The format is cell-based. The conditions noted are these: 4 h treatment, nuclear positivity for pCdk1 Y15 vs DMSO control, read-out: CDK1 Tyr15 Phosphorylation EC50. In outline:
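ACHN cells exposed to compound for 4 h over 7–5,000 nM or 0.3–200 nM, then fixed and immunostained for pCDK1 Y15 with DAPI nuclear counterstain. The percentage of pCdk1 Y15 nucleus-positive cells relative to DMSO control was imaged per well; EC50 from dose-response curves.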

In another experiment the test system is ACHN cells. Description: Cell Titer Glo viability assay, ACHN cells. The class given is cell-based. The conditions noted are these: Homo sapiens, 144 h, absolute EC50. In short, it runs like this:
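Cells grown in MEM with 10% FCS were seeded at 500 (A427), 400 (ACHN) or 250 (DAOY) per well and treated the next day with compound at 17 to 10 000 nM. Viability relative to untreated control was read at 144 h by CellTiter-Glo 2.0.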

T1 sequence (P30291 whole entry): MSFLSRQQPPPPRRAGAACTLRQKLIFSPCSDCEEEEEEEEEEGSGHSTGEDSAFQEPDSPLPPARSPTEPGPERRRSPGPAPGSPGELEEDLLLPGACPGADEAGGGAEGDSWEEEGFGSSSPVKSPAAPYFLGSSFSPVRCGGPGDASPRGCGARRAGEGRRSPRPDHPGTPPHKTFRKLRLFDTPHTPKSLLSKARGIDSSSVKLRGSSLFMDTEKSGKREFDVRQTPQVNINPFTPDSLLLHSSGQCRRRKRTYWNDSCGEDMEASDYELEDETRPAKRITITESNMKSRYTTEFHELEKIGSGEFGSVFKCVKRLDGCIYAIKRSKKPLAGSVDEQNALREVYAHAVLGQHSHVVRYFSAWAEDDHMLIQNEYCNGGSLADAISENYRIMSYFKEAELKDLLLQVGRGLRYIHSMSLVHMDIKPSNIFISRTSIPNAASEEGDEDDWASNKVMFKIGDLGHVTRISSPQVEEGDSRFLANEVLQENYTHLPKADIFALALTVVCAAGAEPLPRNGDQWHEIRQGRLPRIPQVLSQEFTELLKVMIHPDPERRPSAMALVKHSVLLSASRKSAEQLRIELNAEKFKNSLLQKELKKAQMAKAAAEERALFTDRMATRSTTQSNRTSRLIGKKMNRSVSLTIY
T4 sequence (P30291 whole entry): as above

For the compound `C=CCn1c(=O)c2cnc(Nc3ccc4c(c3)c(C)nn4C)nc2n1-c1cccc(OC2CCN(C)CC2)n1` [Compound 346, 2-allyl-6-((1,3-dimethyl-1H-indazol-5-yl)amino)-1-(6-((1-methylpiperidin-4-yl)oxy)pyridin-2-yl)-1,2-dihydro-3H-pyrazolo[3,4-d]pyrimidin-3-one], the IC50 (usually the point on the concentration scale where inhibition reaches its midpoint) in experiment [1] is less than 10 nM; in experiment [3] it was 20 to 100 nM. For the same compound, the EC50 (as a rule, the midpoint of the concentration-response curve) in experiment [2] is 200 to 500 nM; in experiment [4], less than 100 nM; in the experiment with ACHN cells, no more than 100 nM.
For `C=CCn1c(=O)c2cnc(Nc3ccc4c(cnn4CC)c3)nc2n1-c1cccc(OC2CCNCC2)n1` [Compound 280, 2-allyl-6-((1-ethyl-1H-indazol-5-yl)amino)-1-(6-(piperidin-4-yloxy)pyridin-2-yl)-1,2-dihydro-3H-pyrazolo[3,4-d]pyrimidin-3-one], the IC50 is less than 10 nM in experiment [1] and less than 20 nM in experiment [3]. Moreover, the values for the EC50 (in experiment [2]; in experiment [4]; in the experiment with ACHN cells) were 200 to 500 nM, less than 100 nM and no more than 100 nM, respectively.
Consider `C=CCn1c(=O)c2cnc(Nc3ccc4c(cnn4CC(C)C)c3)nc2n1-c1cccc(OC2CCN(C)CC2)n1` [Compound 394, 2-allyl-6-((1-isobutyl-1H-indazol-5-yl)amino)-1-(6-((1-methylpiperidin-4-yl)oxy)pyridin-2-yl)-1,2-dihydro-3H-pyrazolo[3,4-d]pyrimidin-3-one], for which the IC50 in experiment [1] is less than 10 nM; in experiment [3], less than 20 nM. Moreover, the concentration for a half-maximal effect (EC50) in experiment [2] is less than 200 nM; in experiment [4], less than 100 nM; with ACHN cells it was no more than 100 nM.
For `C=CCn1c(=O)c2cnc(Nc3ccc4c(ccn4C(C)=O)c3)nc2n1-c1cccc(OC2CCNCC2)n1` [Compound 384] the same measures were less than 10 nM, 20 to 100 nM, greater than 1000 nM, less than 100 nM and no more than 100 nM.
Take `[2H]C([2H])([2H])N1CCC(Oc2cccc(-n3c4nc(Nc5ccc6c(cnn6C)c5)ncc4c(=O)n3CC=C)n2)CC1` [Compound 281, 2-allyl-6-((1-methyl-1H-indazol-5-yl)amino)-1-(6-((1-(methyl-d3)piperidin-4-yl)oxy)pyridin-2-yl)-1,2-dihydro-3H-pyrazolo[3,4-d]pyrimidin-3-one]: the IC50 in experiment [1] was less than 10 nM; in experiment [3] it was 20 to 100 nM. In addition, the EC50 is less than 200 nM in experiment [2], less than 100 nM in experiment [4] and no more than 100 nM in the experiment on ACHN cells.
For `C=CCn1c(=O)c2cnc(Nc3ccc4c(c3)ncn4C(C)C)nc2n1-c1cccc(OC2CCN(C)CC2)n1` [Compound 400, 2-allyl-6-((1-isopropyl-1H-benzo[d]imidazol-5-yl)amino)-1-(6-((1-methylpiperidin-4-yl)oxy)pyridin-2-yl)-1,2-dihydro-3H-pyrazolo[3,4-d]pyrimidin-3-one], the IC50 in experiment [1] was less than 10 nM; in experiment [3], less than 20 nM. The results for the EC50 (in experiment [2]; in experiment [4]; with ACHN cells) were 200 to 500 nM, less than 100 nM and no more than 100 nM, respectively.
On to `C=CCn1c(=O)c2cnc(Nc3ccc(OCCF)cc3)nc2n1-c1ccnc(OC2CCN(C)CC2)n1` [Compound 388, 2-allyl-6-((4-(2-fluoroethoxy)phenyl)amino)-1-(2-((1-methylpiperidin-4-yl)oxy)pyrimidin-4-yl)-1,2-dihydro-3H-pyrazolo[3,4-d]pyrimidin-3-one], for which the 50% inhibitory concentration (IC50) was less than 10 nM in experiment [1] and 20 to 100 nM in experiment [3]. The EC50 in experiment [2] was less than 200 nM; in experiment [4], less than 100 nM; in the experiment on ACHN cells, no more than 100 nM.
As to `C=CCn1c(=O)c2cnc(Nc3ccc(F)c(C)c3)nc2n1-c1cccc(OC2CCN(C)CC2)n1` [Compound 206, 6-[(4-fluoro-3-methylphenyl)amino]-1-{6-[(1-methylpiperidin-4-yl)oxy]pyridin-2-yl}-2-(prop-2-en-1-yl)-1H,2H,3H-pyrazolo[3,4-d]pyrimidin-3-one], the half-maximal inhibitory concentration (IC50) was less than 10 nM in experiment [1] and 20 to 100 nM in experiment [3]. Also, the concentration giving a half-maximal response (EC50) in experiment [2] was 200 to 500 nM; in experiment [4], less than 100 nM; in the experiment on ACHN cells it was no more than 100 nM.
Regarding `C=CCn1c(=O)c2cnc(Nc3ccc4c(cnn4C)c3)nc2n1-c1cccc(OC2CCCN(C)CC2)n1` (stereo not drawn) [Compound 361], the IC50 in experiment [1] was less than 10 nM. Besides, the results for the EC50 (in experiment [2]; in experiment [4]; in the experiment with ACHN cells) were 200 to 500 nM, less than 100 nM and no more than 100 nM, respectively.
As to `C=CCn1c(=O)c2cnc(Nc3ccc4c(cnn4C)c3)nc2n1-c1cccc(OC2CCN(CCC)CC2)n1` [Compound 322, 2-allyl-6-(1-methyl-1H-indazol-5-ylamino)-1-[6-(1-propyl-4-piperidyloxy)-2-pyridyl]-1,2-dihydro-3H-1,2,5,7-tetraazainden-3-one], the figures for the half-maximal inhibitory concentration (IC50) in experiment [1] and in experiment [3] were less than 10 nM and 20 to 100 nM, respectively. Further, the figures for the EC50 (in experiment [2]; in experiment [4]; with ACHN cells) were 200 to 500 nM, less than 100 nM and no more than 100 nM, respectively.
`C=CCn1c(=O)c2cnc(Nc3ccc4nn(CC)cc4c3)nc2n1-c1cccc(OC2CCN(C)CC2)n1` [Compound 282, 2-allyl-6-((2-ethyl-2H-indazol-5-yl)amino)-1-(6-((1-methylpiperidin-4-yl)oxy)pyridin-2-yl)-1,2-dihydro-3H-pyrazolo[3,4-d]pyrimidin-3-one]: the concentration for half-maximal inhibition (IC50) in experiment [1] was less than 10 nM; in experiment [3] it was less than 20 nM. The figures for the EC50 (in experiment [2]; in experiment [4]; in the experiment on ACHN cells) were less than 200 nM, less than 100 nM and no more than 100 nM, respectively.
For `[2H]C([2H])([2H])N1CCC(Oc2cccc(-n3c4nc(Nc5ccc6c(cnn6C(C)C)c5)ncc4c(=O)n3CC=C)n2)CC1` [Compound 354, 2-allyl-6-(1-isopropyl-1H-indazol-5-ylamino)-1-(6-{1-[(^2H3)methyl]-4-piperidyloxy}-2-pyridyl)-1,2-dihydro-3H-1,2,5,7-tetraazainden-3-one], the EC50 in experiment [2] was less than 200 nM; in experiment [4], less than 100 nM; in the experiment on ACHN cells it was no more than 100 nM. In addition, the half-maximal inhibitory concentration (IC50) in experiment [3] was less than 20 nM.
Regarding `C=CCn1c(=O)c2cnc(Nc3ccc4c(cnn4C)c3)nc2n1-c1ccnc(OC2CCN(C)CC2)n1` [Compound 279, 2-allyl-6-((1-methyl-1H-indazol-5-yl)amino)-1-(2-((1-methylpiperidin-4-yl)oxy)pyrimidin-4-yl)-1,2-dihydro-3H-pyrazolo[3,4-d]pyrimidin-3-one], the 50% inhibitory concentration (IC50) is less than 10 nM in experiment [1] and 20 to 100 nM in experiment [3]. Also, the EC50 is 200 to 500 nM in experiment [2], less than 100 nM in experiment [4] and no more than 100 nM with ACHN cells.
